Patent US12565501B2, “Muscarinic acetylcholine M1 receptor antagonists” (Contineum Therapeutics, Inc., priority 2019, dated 2026)
Counter-ions that a name gives are not always drawn.

Biological target: T1, human M1 receptor (Homo sapiens, UniProt P11229)
T1 sequence (P11229 1-460): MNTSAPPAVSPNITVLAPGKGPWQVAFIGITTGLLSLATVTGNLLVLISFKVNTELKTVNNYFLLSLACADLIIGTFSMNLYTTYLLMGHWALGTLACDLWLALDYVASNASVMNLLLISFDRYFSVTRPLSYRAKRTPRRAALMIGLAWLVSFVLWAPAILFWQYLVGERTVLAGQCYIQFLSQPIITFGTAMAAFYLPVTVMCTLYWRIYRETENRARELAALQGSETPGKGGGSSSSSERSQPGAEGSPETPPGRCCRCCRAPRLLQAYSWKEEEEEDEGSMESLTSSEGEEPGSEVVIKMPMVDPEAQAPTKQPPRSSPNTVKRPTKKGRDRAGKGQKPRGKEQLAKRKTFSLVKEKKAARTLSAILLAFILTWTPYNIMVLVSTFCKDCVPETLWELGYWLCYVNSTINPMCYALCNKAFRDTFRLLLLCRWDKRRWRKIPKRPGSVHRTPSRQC
Test: In vitro functional assay of muscarinic acetylcholine receptor activity (aequorin calcium flux, reversal of EC80 acetylcholine response)
Format: cell-based
Conditions: CHO-K1 cells stably expressing human M1 receptor with aequorin; acetylcholine at EC80; calcium flux (luminescence); read-out: M1 IC50
Procedure, shortened: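 Antagonist mode: compound (final 0.1% DMSO) and coelenterazine-loaded M1/aequorin CHO-K1 cells incubated 30 min in the dark before EC80 acetylcholine addition. Calcium flash integrated as 40 s luminescence AUC; IC50 derived from dose-response curves.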

Compound	IC50
N#Cc1ccc(N2C[C@H]3CC[C@@H]2CN3C(=O)CNC2(c3ccc(F)cc3F)CC2)nc1 [Example 81, 6-((1R,4R)-5-((1-(2,4-difluorophenyl)cyclopropyl)glycyl)-2,5-diazabicyclo[2.2.2]octan-2-yl)nicotinonitrile]	> 1000 nM
N#Cc1ccc(N2C3CCC2CN(C(=O)COC2(c4cccc(C#N)c4)CC2)C3)nc1 [Example 295, 6-(3-(2-(1-(3-cyanophenyl)cyclopropoxy)acetyl)-3,8-diazabicyclo[3.2.1]octan-8-yl)nicotinonitrile]	100 to 1000 nM
COc1cccnc1C(F)(F)/C=C/C(=O)N1C[C@H]2CC[C@@H](C1)N2c1ccc(C#N)cn1 [Example 144, 6-(3-((E)-4,4-difluoro-4-(3-methoxypyridin-2-yl)but-2-enoyl)-3,8-diazabicyclo[3.2.1]octan-8-yl)nicotinonitrile]	< 10 nM
COc1cc(C2(OCC(=O)N3CC4CCC(C3)N4c3ccc(C#N)cn3)CCC2)ccn1 [Example 252, 6-(3-(2-(1-(2-methoxypyridin-4-yl)cyclobutoxy)acetyl)-3,8-diazabicyclo[3.2.1]octan-8-yl)nicotinonitrile]	10 to 100 nM
N#Cc1ccc(N2C3CCC2CN(C(=O)COCC(F)(F)c2cccc4ncccc24)C3)nc1 [Example 276, 6-(3-(2-(2,2-difluoro-2-(quinolin-5-yl)ethoxy)acetyl)-3,8-diazabicyclo[3.2.1]octan-8-yl)nicotinonitrile]	< 10 nM
N#Cc1ccc(N2C3CCC2CN(C(=O)COC2(c4ccccn4)CCC2)C3)nc1 [Example 246, 6-(3-(2-(1-(pyridin-2-yl)cyclobutoxy)acetyl)-3,8-diazabicyclo[3.2.1]octan-8-yl)nicotinonitrile]	1000 to 10000 nM
N#Cc1ccc(N2[C@@H]3CC[C@H]2CN(C(=O)CCN2CCC2c2ccc(F)cc2)C3)nc1 (mixture of isomers) [Example 23, 6-(3-(3-(2-(4-fluorophenyl)azetidin-1-yl)propanoyl)-3,8-diazabicyclo[3.2.1]octan-8-yl)nicotinonitrile]	1000 to 10000 nM
CC(SCCC(=O)N1CC2CCC(C1)N2c1ccc(C#N)cn1)c1ccccc1 (racemic) [Example 134, 6-(3-(3-((1-phenylethyl)thio)propanoyl)-3,8-diazabicyclo[3.2.1]octan-8-yl)nicotinonitrile]	100 to 1000 nM
N#Cc1ccc(N2C3CCC2CN(C(=O)COC2(c4ccc(F)cc4)CCC2)C3)nc1 [Example 234, 6-(3-(2-(1-(4-fluorophenyl)cyclobutoxy)acetyl)-3,8-diazabicyclo[3.2.1]octan-8-yl)nicotinonitrile]	10 to 100 nM
COc1cc([C@H](C)NCC(=O)N2CC3CCC(C2)N3c2ccc(C#N)cn2)ccc1F [Example 66, 6-(3-(((S)-1-(4-fluoro-3-methoxyphenyl)ethyl)glycyl)-3,8-diazabicyclo[3.2.1]octan-8-yl)nicotinonitrile]	< 10 nM
N#Cc1ccc(N2C3CCC2CN(C(=O)CCNC2(c4cccc(C#N)c4)CC2)C3)nc1 [Example 13, 6-(3-(3-((1-(3-cyanophenyl)cyclopropyl)amino)propanoyl)-3,8-diazabicyclo[3.2.1]octan-8-yl)nicotinonitrile]	10 to 100 nM
N#Cc1ccc(N2C3CCC2CN(C(=O)CCNC2(c4cc(Cl)cc(C#N)c4)CC2)C3)nc1 [Example 289, 6-(3-(3-((1-(3-chloro-5-cyanophenyl)cyclopropyl)amino)propanoyl)-3,8-diazabicyclo[3.2.1]octan-8-yl)nicotinonitrile]	100 to 1000 nM
[2H]C([2H])([2H])Oc1cc(C(F)(F)/C=C/C(=O)N2CC3CCC(C2)N3c2ccc(C#N)cn2)ccn1 [Example 149, 6-(3-((E)-4,4-difluoro-4-(2-(methoxy-d3)pyridin-4-yl)but-2-enoyl)-3,8-diazabicyclo[3.2.1]octan-8-yl)nicotinonitrile]	< 10 nM
COc1ccc(C2(OCC(=O)N3CC4CCC(C3)N4c3ccc(C#N)cn3)CC2)c(F)c1 [Example 223, 6-(3-(2-(1-(2-fluoro-4-methoxyphenyl)cyclopropoxy)acetyl)-3,8-diazabicyclo[3.2.1]octan-8-yl)nicotinonitrile]	> 1000 nM
N#Cc1ccc(N2C3CCC2CN(C(=O)CNC2(c4c(F)cccc4F)CC2)C3)nc1 [Example 72, 6-(3-((1-(2,6-difluorophenyl)cyclopropyl)glycyl)-3,8-diazabicyclo[3.2.1]octan-8-yl)nicotinonitrile]	100 to 1000 nM
N#Cc1ccc(N2C3CCC2CN(C(=O)COCC2(c4cccc5ncnn45)CC2)C3)nc1 [Example 232, 6-(3-(2-((1-([1,2,4]triazolo[1,5-a]pyridin-5-yl)cyclopropyl)methoxy)acetyl)-3,8-diazabicyclo[3.2.1]octan-8-yl)nicotinonitrile]	< 10 nM

Compound	IC50
Cn1ccc(C2(OCC(=O)N3CC4CCC(C3)N4c3ccc(C#N)cn3)CCC2)cc1=O [Example 300, 6-(3-(2-(1-(1-methyl-2-oxo-1,2-dihydropyridm-4-yl)cyclobutoxy)acetyl)-3,8-diazabicyclo[3.2.1]octan-8-yl)nicotinonitrile]	10 to 100 nM
N#Cc1ccc(N2[C@@H]3CC[C@H]2CN(C(=O)CCNC2(c4ncccc4F)CC2)C3)nc1 [Example 20, 6-(3-(3-((1-(3-fluoropyridin-2-yl)cyclopropyl)amino)propanoyl)-3,8-diazabicyclo[3.2.1]octan-8-yl)nicotinonitrile]	1000 to 10000 nM
COc1ccc(F)c([C@H](C)NCC(=O)N2CC3CCC(C2)N3c2ccc(C#N)cn2)c1 [Example 67, 6-(3-(((S)-1-(2-fluoro-5-methoxyphenyl)ethyl)glycyl)-3,8-diazabicyclo[3.2.1]octan-8-yl)nicotinonitrile]	< 10 nM
N#Cc1ccc(N2C3CCC2CN(C(=O)COC2(c4cc(F)cc(Br)c4)CC2)C3)nc1 [Example 217, 6-(3-(2-(1-(3-bromo-5-fluorophenyl)cyclopropoxy)acetyl)-3,8-diazabicyclo[3.2.1]octan-8-yl)nicotinonitrile]	10 to 100 nM
CCC(OCC(=O)N1CC2CCC(C1)N2c1ccc(C#N)cn1)c1ccc(F)c(Br)c1 (racemic) [Example 216, 6-(3-(2-(1-(3-bromo-4-fluorophenyl)propoxy)acetyl)-3,8-diazabicyclo[3.2.1]octan-8-yl)nicotinonitrile]	< 10 nM
COc1cccc(C(CO)CCC(=O)N2CC3CCC(C2)N3c2ccc(C#N)cn2)c1 (racemic) [Example 317, 6-(3-(5-hydroxy-4-(3-methoxyphenyl)pentanoyl)-3,8-diazabicyclo[3.2.1]octan-8-yl)nicotinonitrile]	< 10 nM
N#Cc1ccc(N2[C@@H]3CC[C@H]2CN(C(=O)CCNC2(c4ncc(F)cc4F)CC2)C3)nc1 [Example 31, 6-(3-(3-((1-(3,5-difluoropyridin-2-yl)cyclopropyl)amino)propanoyl)-3,8-diazabicyclo[3.2.1]octan-8-yl)nicotinonitrile]	100 to 1000 nM
N#Cc1ccc(N2C[C@H]3CC[C@@H]2CN3C(=O)CCNC2(c3ccc(F)c(F)c3)CC2)nc1 [Example 41, 6-((1R,4R)-5-(3-((1-(3,4-difluorophenyl)cyclopropyl)amino)propanoyl)-2,5-diazabicyclo[2.2.2]octan-2-yl)nicotinonitrile]	10 to 100 nM
N#Cc1ccc(N2C3CCC2CN(C(=O)COC(c2ccc(F)cc2)C(F)F)C3)nc1 (racemic) [Example 200, 6-(3-(2-(2,2-difluoro-1-(4-fluorophenyl)ethoxy)acetyl)-3,8-diazabicyclo[3.2.1]octan-8-yl)nicotinonitrile]	10 to 100 nM
N#Cc1ccc(N2C3CCC2CN(C(=O)COC2(c4ccccc4C#N)CC2)C3)nc1 [Example 294, 6-(3-(2-(1-(2-cyanophenyl)cyclopropoxy)acetyl)-3,8-diazabicyclo[3.2.1]octan-8-yl)nicotinonitrile]	100 to 1000 nM
N#Cc1ccc(N2C3CCC2CN(C(=O)COC2(c4cccnn4)CCC2)C3)nc1 [Example 274, 6-(3-(2-(1-(pyridazin-3-yl)cyclobutoxy)acetyl)-3,8-diazabicyclo[3.2.1]octan-8-yl)nicotinonitrile]	10 to 100 nM
CC(NCC(=O)N1CC2CCC(C1)N2c1ccc(C#N)cn1)c1ccc(F)cc1F (stereo in doubt) [Example 88, 6-(3-(((S)-1-(2,4-difluorophenyl)ethyl)glycyl)-3,8-diazabicyclo[3.2.1]octan-8-yl)nicotinonitrile]	1000 to 10000 nM
N#Cc1ccc(N2C3CCC2CN(C(=O)CNC2(c4ccccn4)CC2)C3)nc1 [Example 63, 6-(3-((1-(pyridin-2-yl)cyclopropyl)glycyl)-3,8-diazabicyclo[3.2.1]octan-8-yl)nicotinonitrile]	1000 to 10000 nM
N#Cc1ccc(N2C3CCC2CN(C(=O)COC2(c4ccccc4Br)CC2)C3)nc1 [Example 181, 6-(3-(2-(1-(2-bromophenyl)cyclopropoxy)acetyl)-3,8-diazabicyclo[3.2.1]octan-8-yl)nicotinonitrile]	10 to 100 nM
N#Cc1ccc(N2C3CCC2CN(C(=O)COC2(c4cncnc4)CCC2)C3)nc1 [Example 262, 6-(3-(2-(1-(pyrimidin-5-yl)cyclobutoxy)acetyl)-3,8-diazabicyclo[3.2.1]octan-8-yl)nicotinonitrile]	100 to 1000 nM

Same assay, conditions: M1 IC50, CHO-K1 cells stably expressing human M1 receptor with aequorin; acetylcholine at EC80; calcium flux (luminescence)

Compound	IC50
N#Cc1ccc(N2C3CCC2CN(C(=O)CCNC2(c4ccc(F)c(C#N)c4)CC2)C3)nc1 [Example 288, 6-(3-(3-((1-(3-cyano-4-fluorophenyl)cyclopropyl)amino)propanoyl)-3,8-diazabicyclo[3.2.1]octan-8-yl)nicotinonitrile formic acid Salt]	10 to 100 nM
